According to PubChem BioAssay (NCI):
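48-hour exposure; five concentrations; linearly interpolated endpoints. TGI denotes the concentration required for complete inhibition of growth.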

Legend:
Test in all cases: DTP human tumour cell line panel, 48 h
DMS 273 small cell lung = test system: DMS 273 small cell lung
UACC-257 melanoma = test system: UACC-257 melanoma
HCT-116 colon = test system: HCT-116 colon
DLD-1 colon = test system: DLD-1 colon
KM12 colon = test system: KM12 colon
U251 CNS = test system: U251 CNS
KM20L2 colon = test system: KM20L2 colon
MALME-3M melanoma = test system: MALME-3M melanoma
UACC-62 melanoma = test system: UACC-62 melanoma
NCI-H460 lung = test system: NCI-H460 lung
SK-MEL-28 melanoma = test system: SK-MEL-28 melanoma
SN12C renal = test system: SN12C renal
HOP-92 NSCLC = test system: HOP-92 NSCLC
NCI-H522 lung = test system: NCI-H522 lung
RPMI-8226 leukemia = test system: RPMI-8226 leukemia
SK-OV-3 ovarian = test system: SK-OV-3 ovarian
SNB-78 CNS = test system: SNB-78 CNS
HOP-18 NSCLC = test system: HOP-18 NSCLC
UO-31 renal = test system: UO-31 renal
HCT-15 colon = test system: HCT-15 colon
K-562 leukemia = test system: K-562 leukemia
HCC-2998 colon = test system: HCC-2998 colon
NCI-H23 lung = test system: NCI-H23 lung
EKVX NSCLC = test system: EKVX NSCLC
M14 melanoma = test system: M14 melanoma
M19-MEL melanoma = test system: M19-MEL melanoma
TK-10 renal = test system: TK-10 renal
COLO 205 colon = test system: COLO 205 colon
OVCAR-4 ovarian = test system: OVCAR-4 ovarian
A498 renal = test system: A498 renal
CCRF-CEM leukemia = test system: CCRF-CEM leukemia
SK-MEL-2 melanoma = test system: SK-MEL-2 melanoma
SW-620 colon = test system: SW-620 colon
HL-60(TB) leukemia = test system: HL-60(TB) leukemia
OVCAR-8 ovarian = test system: OVCAR-8 ovarian
SF-268 CNS = test system: SF-268 CNS
HOP-62 NSCLC = test system: HOP-62 NSCLC
SK-MEL-5 melanoma = test system: SK-MEL-5 melanoma
MOLT-4 leukemia = test system: MOLT-4 leukemia
DMS 114 small cell lung = test system: DMS 114 small cell lung
LOX IMVI melanoma = test system: LOX IMVI melanoma
OVCAR-5 ovarian = test system: OVCAR-5 ovarian
HT29 colon = test system: HT29 colon
NCI-H226 lung = test system: NCI-H226 lung
CAKI-1 renal = test system: CAKI-1 renal
LXFL 529 NSCLC = test system: LXFL 529 NSCLC
SNB-75 CNS = test system: SNB-75 CNS
SNB-19 CNS = test system: SNB-19 CNS
SF-539 CNS = test system: SF-539 CNS
RXF 393 renal = test system: RXF 393 renal
A549 NSCLC = test system: A549 NSCLC
786-0 renal = test system: 786-0 renal
SF-295 CNS = test system: SF-295 CNS
ACHN renal = test system: ACHN renal
IGROV1 ovarian = test system: IGROV1 ovarian
SR leukemia = test system: SR leukemia
OVCAR-3 ovarian = test system: OVCAR-3 ovarian
XF 498 CNS = test system: XF 498 CNS

Measured: TGI

CC(C)N(C(C)C)P(OCCC#N)OC1CC(n2cnc3c(=O)[nH]cnc32)OC1COC(=O)NCCCCCCNC(=O)OC(C)(C)c1ccc(-c2ccccc2)cc1 (configuration not stated)
31.2 µM: COLO 205 colon
30.3 µM: UACC-257 melanoma
50.5 µM: NCI-H23 lung
57.8 µM: SNB-19 CNS
35.5 µM: KM12 colon
74.3 µM: RXF 393 renal
41.6 µM: DMS 114 small cell lung
32.5 µM: LXFL 529 NSCLC
75.7 µM: HOP-92 NSCLC
38.4 µM: IGROV1 ovarian
44.2 µM: HOP-62 NSCLC
31.3 µM: UO-31 renal
> 100 µM: HCT-116 colon | DLD-1 colon | KM20L2 colon | SK-OV-3 ovarian | SNB-78 CNS | HOP-18 NSCLC | HCT-15 colon | EKVX NSCLC | TK-10 renal | A498 renal | SK-MEL-2 melanoma | SW-620 colon | MOLT-4 leukemia | OVCAR-5 ovarian | HT29 colon | CAKI-1 renal | A549 NSCLC | SF-295 CNS | ACHN renal
36.4 µM: HL-60(TB) leukemia
35.3 µM: UACC-62 melanoma
65.1 µM: HCC-2998 colon
43.8 µM: CCRF-CEM leukemia
89.4 µM: MALME-3M melanoma
37.5 µM: K-562 leukemia
34.6 µM: M14 melanoma
57 µM: SK-MEL-28 melanoma
53.7 µM: SNB-75 CNS
54 µM: SN12C renal
54.7 µM: 786-0 renal
76.1 µM: RPMI-8226 leukemia
65 µM: NCI-H460 lung
57.5 µM: SF-268 CNS
32.7 µM: LOX IMVI melanoma
32.1 µM: DMS 273 small cell lung
44.3 µM: SF-539 CNS
43 µM: U251 CNS
32.6 µM: NCI-H522 lung
40.9 µM: SK-MEL-5 melanoma
38.2 µM: OVCAR-4 ovarian
42.2 µM: M19-MEL melanoma
92.4 µM: OVCAR-8 ovarian
55.2 µM: NCI-H226 lung

COc1ccc(C2C(Cl)C(=O)N2NC(=O)Cc2ccccc2)cc1OC (configuration not stated)
> 100 µM: DMS 273 small cell lung | UACC-257 melanoma | HCT-116 colon | DLD-1 colon | KM12 colon | U251 CNS | SR leukemia | KM20L2 colon | MALME-3M melanoma | UACC-62 melanoma | NCI-H460 lung | OVCAR-3 ovarian | SK-MEL-28 melanoma | SN12C renal | NCI-H522 lung | RPMI-8226 leukemia | SK-OV-3 ovarian | SNB-78 CNS | HOP-18 NSCLC | UO-31 renal | HCT-15 colon | K-562 leukemia | HCC-2998 colon | NCI-H23 lung | EKVX NSCLC | M14 melanoma | M19-MEL melanoma | TK-10 renal | COLO 205 colon | OVCAR-4 ovarian | CCRF-CEM leukemia | SK-MEL-2 melanoma | SW-620 colon | HL-60(TB) leukemia | OVCAR-8 ovarian | SF-268 CNS | HOP-62 NSCLC | SK-MEL-5 melanoma | MOLT-4 leukemia | DMS 114 small cell lung | LOX IMVI melanoma | OVCAR-5 ovarian | HT29 colon | NCI-H226 lung | CAKI-1 renal | SNB-75 CNS | SNB-19 CNS | RXF 393 renal | A549 NSCLC | 786-0 renal | SF-295 CNS | ACHN renal | XF 498 CNS | IGROV1 ovarian

OCC(O)C(OC1OC(CO)C(O)C(O)C1O)c1nn(-c2ccccc2)c2nc3cc(Cl)ccc3nc12 (configuration not stated)
> 100 µM: UACC-257 melanoma | HCT-116 colon | DLD-1 colon | KM12 colon | U251 CNS | SR leukemia | KM20L2 colon | MALME-3M melanoma | UACC-62 melanoma | NCI-H460 lung | OVCAR-3 ovarian | SK-MEL-28 melanoma | SN12C renal | NCI-H522 lung | RPMI-8226 leukemia | SK-OV-3 ovarian | SNB-78 CNS | UO-31 renal | HCT-15 colon | K-562 leukemia | HCC-2998 colon | NCI-H23 lung | EKVX NSCLC | M14 melanoma | M19-MEL melanoma | TK-10 renal | OVCAR-4 ovarian | A498 renal | CCRF-CEM leukemia | OVCAR-8 ovarian | SF-268 CNS | HOP-62 NSCLC | MOLT-4 leukemia | DMS 114 small cell lung | LOX IMVI melanoma | OVCAR-5 ovarian | HT29 colon | LXFL 529 NSCLC | SNB-75 CNS | SNB-19 CNS | SF-539 CNS | RXF 393 renal | 786-0 renal | SF-295 CNS | ACHN renal | XF 498 CNS

COc1ccc2c(c1)OCCC1=C2SCC2(C)CCN=C12 (configuration not stated)
> 100 µM: DMS 273 small cell lung | HCT-116 colon | DLD-1 colon | KM12 colon | U251 CNS | KM20L2 colon | UACC-62 melanoma | NCI-H460 lung | OVCAR-3 ovarian | SK-MEL-28 melanoma | SN12C renal | NCI-H522 lung | RPMI-8226 leukemia | SK-OV-3 ovarian | SNB-78 CNS | HOP-18 NSCLC | K-562 leukemia | NCI-H23 lung | M14 melanoma | TK-10 renal | COLO 205 colon | OVCAR-4 ovarian | CCRF-CEM leukemia | SW-620 colon | HL-60(TB) leukemia | OVCAR-8 ovarian | SF-268 CNS | HOP-62 NSCLC | SK-MEL-5 melanoma | MOLT-4 leukemia | DMS 114 small cell lung | LOX IMVI melanoma | HT29 colon | NCI-H226 lung | LXFL 529 NSCLC | SNB-75 CNS | SNB-19 CNS | SF-539 CNS | RXF 393 renal | A549 NSCLC | 786-0 renal | SF-295 CNS | XF 498 CNS | IGROV1 ovarian

COc1ccc(/C=N/Nc2nc(C)c3c(n2)Nc2ccccc2NC3=O)cc1
> 100 µM: DMS 273 small cell lung | HCT-116 colon | DLD-1 colon | SR leukemia | MALME-3M melanoma | UACC-62 melanoma | SK-MEL-28 melanoma | SN12C renal | HOP-92 NSCLC | NCI-H522 lung | RPMI-8226 leukemia | SK-OV-3 ovarian | SNB-78 CNS | UO-31 renal | K-562 leukemia | HCC-2998 colon | NCI-H23 lung | M14 melanoma | M19-MEL melanoma | COLO 205 colon | OVCAR-4 ovarian | A498 renal | CCRF-CEM leukemia | SK-MEL-2 melanoma | HL-60(TB) leukemia | SF-268 CNS | HOP-62 NSCLC | MOLT-4 leukemia | DMS 114 small cell lung | NCI-H226 lung | CAKI-1 renal | LXFL 529 NSCLC | SNB-75 CNS | SF-539 CNS | 786-0 renal | ACHN renal | XF 498 CNS | IGROV1 ovarian
